# Columns and labels:
# Vero monkey kidney cells = assay: Vero cell cytotoxicity (MTT assay, 72 h); assay type: cell-based; settings: Primates, IC50 ± SD
# Procedure: To assess the test compounds’ cytotoxicity, MTT assays were performed. The Vero cells and macrophages were cultivated for 24 h at 37 °C in RPMI 1640 media with 10% FBS and 5% CO2 in 96-well plates (5 × 10^3 cells/well/200 μL). Following a washing step with PBS, the cells were treated with test compounds at different concentrations (50, 25, 12.5, 6.25, 3.13, 1.65, and 0.75 μg /mL) in 10% FBS medium for 72 h. Negative control cells were only given media with 2% FBS and 1% DMSO. The cells were cultured for 4 h after the supernatant was disposed of, and 50 μL of RPMI 1640 media containing 14 μL MTT (5 mg/mL) was added. After removing the supernatant once again, 150 μL of DMSO was added. IC50 values were determined from three independent experiments.
# L. major amastigotes = assay: Leishmania major amastigotes in peritoneal macrophages (percentage of infected macrophages, 72 h); assay type: cell-based; settings: Macrophage, IC50 ± SD
# Procedure: (§1) Promastigotes of L. major were obtained from a patient (February 2016) and cultured at 26 °C in Schneider’s Drosophila medium (Invitrogen, Carlsbad, CA, USA) supplemented with 10% heat-inactivated fetal bovine serum (FBS, Invitrogen, USA) and antibiotics, with weekly transfers in a tissue culture flask. Promastigotes were cryopreserved in liquid nitrogen at a concentration of 3 × 10^6 parasites/mL. Virulent L. major parasites were maintained by serial passage in female BALB/c mice, achieved by injecting hind footpads with 1 × 10^6 stationary-phase promastigotes. Amastigotes were isolated from the mice after 8 weeks, then converted to promastigotes by cultivation at 26 °C in Schneider’s medium containing 10% FBS and antibiotics. Amastigote-derived promastigotes, which underwent several in vitro passages, were used for the infection studies. BALB/c mice (both male and female) were provided by the Pharmaceutical College, King Saud University, Kingdom of Saudi Arabia, and housed in specific pathogen-free conditions following the ethical guidelines of the Qassim University Research Ethics Committee (permission number: 20-03-20).
# Activity against amastigotes in macrophages was evaluated using peritoneal macrophages, which were harvested from 6–8-week-old BALB/c mice of different sex, and plated at 5 × 10^4 cells/well in 96-well plates containing phenol-red-free RPMI 1640 medium with 10% FBS. After 4 h at 37 °C and 5% CO2 to promote adhesion, cells were washed with PBS, and 200 μL of an L. major promastigote solution (10 promastigotes per macrophage) was added. Plates were incubated for 24 h at 37 °C in a 5% CO2 environment to allow infection and amastigote differentiation. Infected cells were then washed with PBS and overlaid with RPMI 1640 medium containing the test compounds at the same concentrations as applied for the experiments with promastigotes, followed by incubation at 37 °C and 5% CO2 for 72 h. […] IC50 values were calculated from three independent experiments.
# L. major promastigotes = assay: Leishmania major promastigote assay (MTT, 72 h); assay type: cell-based
# Procedure: as §1
# L. major promastigotes in the logarithmic phase were cultured in phenol-red-free RPMI 1640 medium (Invitrogen, USA) with 10% FBS in 96-well plates at 10^6 cells/mL (200 μL/well, counted with a hemocytometer). Test compounds were added at final concentrations of 50, 25, 12.5, 6.25, 3.13, 1.65, and 0.75 μg/mL. […] After incubation at 26 °C for 72 h, viable promastigotes were counted using an MTT colorimetric assay. The formed formazan was dissolved in a detergent and the absorbance was measured at 570 nm using an ELISA reader. IC50 values were derived from three independent experiments.
# macrophages = assay: Macrophage cytotoxicity (MTT assay, 72 h); assay type: cell-based, BALB/c mice; settings: Mus musculus, IC50 ± SD
# Procedure: Plates were incubated for 24 h at 37 °C in a 5% CO2 environment to allow infection and amastigote differentiation. Infected cells were then washed with PBS and overlaid with RPMI 1640 medium containing the test compounds at the same concentrations as applied for the experiments with promastigotes, followed by incubation at 37 °C and 5% CO2 for 72 h. […] The percentage of infected macrophages was determined microscopically after fixation, Giemsa staining, and medium removal. IC50 values were calculated from three independent experiments. To assess the test compounds’ cytotoxicity, MTT assays were performed. […] Negative control cells were only given media with 2% FBS and 1% DMSO. The cells were cultured for 4 h after the supernatant was disposed of, and 50 μL of RPMI 1640 media containing 14 μL MTT (5 mg/mL) was added. After removing the supernatant once again, 150 μL of DMSO was added. IC50 values were determined from three independent experiments.
# [1] = tested on: T. gondii RH strain tachyzoites; assay: Toxoplasma gondii cells drug testing assay (infection index in Vero cells, 72 h); assay type: cell-based; settings: for IC50: Toxoplasma gondii, Vero, IC50 ± SD, three independent experiments, 72 h; for SI = selectivity index (Vero/T. gondii): ratio IC50 Vero / IC50 T. gondii
# Procedure: Cells of the Vero cell line (ATCC® CCL81™, Manassas, VA, USA) were used to cultivate T. gondii RH strain tachyzoites. Vero cells were maintained in complete RPMI 1640 medium (Thermo Fisher Scientific, Waltham, MA, USA). For cell cultivation, 96-well plates were prepared with 5 × 10^3 cells per well in 200 μL of RPMI 1640 medium, then incubated at 37 °C and 5% CO2 for 24 h. The medium was then removed, and cells were washed with phosphate-buffered saline (PBS). Next, RPMI 1640 medium with 2% FBS and parasites at a 5:1 parasite-to-cell ratio were added. After a 5 h incubation at 37 °C and 5% CO2, cells were washed with PBS and subjected to further treatments. […] After incubation at 37 °C and 5% CO2 for 72 h, cells were washed with PBS, fixed in 10% formalin, and stained with 1% toluidine blue. An inverted photomicroscope was used to assess cell infection and to determine the infection index (number of infected cells out of 200 counted cells). The inhibition percentage was calculated as follows:Inhibition (%) = [(I Control − I Experimental)/I Control] × 100 where “I Control” represents the infection index of untreated cells, and “I Experimental” represents the infection index of cells treated with test compounds. The effects of the compounds on parasite growth are expressed as IC50 values derived from three independent experiments.
# [2] = Leishmania major, 72 h, IC50 ± SD, MTT
# [3] = ratio IC50 macrophages / IC50 promastigotes
SMILES,IC50 (Vero monkey kidney cells) [µM],IC50 (L. major amastigotes) [µM],IC50 (L. major promastigotes; [2]) [µM],IC50 (macrophages) [µM],IC50 [1] [µM],SI = selectivity index (Vero/T. gondii) [1],SI (promastigotes) = selectivity index (macrophages/L. major promastigotes) (L. major promastigotes; [3]),"IC50 (L. major promastigotes; IC50 ± SD, MTT, 72 h) [µM]","IC50 (L. major promastigotes; Leishmania major; IC50 ± SD, MTT, 72 h) [µM]",activity against T. gondii (in words) [1]
O=C(N/N=C/C=C/c1ccccc1)c1ccccc1F [Compound 2g],> 74.6,> 74.6,> 74.6,> 74.6,69.4 ± 10,,,,,
"CC(C)Cc1ccc(CC(C)/C=N/NC(=O)c2cccc(F)c2)cc1 (stereo not drawn) [Compound 3e, N′-2-Methyl-3-[4-(2-methylpropyl)phenyl]propanylidene-3-fluorobenzoylhydrazide]",53.5 ± 8.5,> 58.8,> 58.8,> 58.8,45.3 ± 6.9,1.2,,,,
"C(=C\c1ccccc1)/C=N/Nc1ccccc1 [CPH, Cinnamaldehyde phenyl hydrazone, reference compound]",23.6 ± 3.9,,83.7 ± 13.6,78.4 ± 12.2,12.9 ± 2.1,1.8,0.94,,,
O=C(N/N=C/C=C/c1ccccc1)c1ccncc1 [Compound 2l],51.3 ± 7.8,> 52.5,51.3 ± 9.3,> 52.5,52.1 ± 8.3,0.99,>1.0,,,
"CC(C)c1cccc(C(C)C/C=N/NC(=O)c2cccc(Cl)c2)c1 (stereo not drawn) [Compound 4f, N′-3-(3-Isopropylphenyl)butanylidene-3-chlorobenzoylhydrazide]",57.9 ± 11,> 58.3,< 30,> 58.3,47.5 ± 7.3,1.2,>2.1,27.9 ± 4.2,,
"CC(C)Cc1ccc(CC(C)C=O)cc1 (stereo not drawn) [Silvial^TM, 2-methyl-3-[4-(2-methylpropyl)phenyl]propanal, reference compound]",> 97.9,> 97.9,> 97.9,> 97.9,90.1 ± 15.2,,,,,
"O=C/C=C/c1ccccc1 [Cinnamaldehyde, (2E)-3-phenylprop-2-enal]",> 151,> 151,,> 151,> 151,,,,> 151,inactive
"CC(C)c1cccc(C(C)C/C=N/NC(=O)c2ccncc2)c1 (stereo not drawn) [Compound 4g, N′-3-(3-Isopropylphenyl)butanylidene-isonicotinoylhydrazide]",> 64.6,> 64.6,54.6 ± 9,> 64.6,> 64.6,,>1.2,,,
"CC(C)c1cccc(C(C)CC=O)c1 (stereo not drawn) [Florhydral^TM, 3-(3-isopropylphenyl)butanal, reference compound]",99.1 ± 18.4,> 105,> 105,> 105,> 105,,,,,

# — paper PMC11672724, “Antiparasitic Activities of Acyl Hydrazones from Cinnamaldehydes and Structurally Related Fragrances” (Antibiotics, 2024)
